In patent US5116877A, “Pharmaceutical use for cinnamamide derivatives” (Taisho Pharmaceutical Co., Ltd., priority 1989, dated 1992):

Tests used:
[1] = tested on: mesocephalous decerebrate rididity; experiment: Inhibition test of the mesocephalous decerebrate rigidity; type: in vivo, male Wistar rats; settings: rat
Method: Experiment 1 [Inhibition test of the mesocephalous decerebrate rididity]
The rigidity animals were prepared according to the method of Ono et al [Gen. Pharm., vol. 18, page 57-59 (1987)].
Four male Wistar rats weighing 250 to 350 g were used for each group. The animals were anesthetized with ethyl ether and fixed on a brain stereotaxic apparatus to break the midbrain bilaterally (APO, V-3, L ±1.5). The advanced rigidity occurred in the hind limb with awaking from the ethyl ether anesthesia. The test drugs [A; (E)-N-cyclopropyl-3-(3-chlorophenyl)-2-butenamide, B; (E)-N-cyclopropyl-3-(3-fluorophenyl)-2-butenamide and C; cinflumide] dissolved in propylene glycol were each administered intravenously in the amount of 5 mg/kg or 10 mg/kg (0.1 ml per 100 g of rat), and these test drugs suspended in 0.4% aqueous carboxymethylcellulose solution were each administered intraduodenally in the amount of 50 mg/kg (0.1 ml per 100 g of rat) to determine the inhibition time of the rigidity.

[2] = tested on: Anemic Decerebrate rigidity; experiment: Inhibition of anemic decerebrate rigidity; type: in vivo, male Wistar rats; settings: rat, in polyethylene glycol 400
Method: Experiment 2[Inhibition of Anemic Decerebrate rigidity]
The rigidity animals were prepared according to the method of Fukuda et al [Japan J. Pharmacol., vol. 24, page 810-813 (1974)].
Four male Wistar rats weighing 250 to 350 g were used for each group.
The animals were anesthetized with ethyl ether and carotid artery was ligated bilaterally. A round hole was digged in the suboccipital skeleton and the basal artery was coagulated using a bipolar electrocoagulator. The advanced rigidity occurred on the fore limb with awaking from the ethyl ether anesthesia. The drugs [A; (E)-N-cyclopropyl-3-(3-chlorophenyl)-2-butenamide, B; (E)-N-cyclopropyl-3-(3-fluorophenyl)-2-butenamide, and C; cinflumide] dissolved in polyethylene glycol 400 were each administered intravenously in the amount of 5 mg/kg or 10 mg/kg (0.1 ml per 100 g of rat) to determine the inhibition time of the rigidity.

[3] = tested on: Straub tail reaction; experiment: Straub tail reaction (morphine-induced); type: in vivo, male ICR mice; settings: mouse, morphine hydrochloride 15 mg/kg s.c.
Method: Experiment 3 [Straub tail reaction]
Test was carried out according to the method of Ellis et al [Neuropharmacology, vol. 13, page 211 to (1974)].
Six male ICR mice weighing 20-30 g were used as the animals for each group. The drugs [A; (E)-N-cyclopropyl-3-(3-chlorophenyl)-2-butenamide, and C; cinflumide] suspended in 0.4% aqueous carboxymethylcellulose solution were each administered orally to the animals in the amounts of 50, 70.7, 100 and 140 mg/kg (0.1 ml per 10 g of mouse). After 15 minutes, 15 mg/kg of morphine hydrochloride were administered subcutaneously. After 30 minutes, the tail-raising reaction was determined. The muscle relaxation activity was judged as positive in case where the drug produces the value of less than 45 degrees of the tail-raising's angle, and the inhibition rate was culculated.

[4] = Japanese Patent Publication No. 60-56700; among known cinnamamide derivatives; cited from earlier work
[5] = tested on: spontaneous motor activity; experiment: Spontaneous motor activity test; type: in vivo, male ICR mice; settings: mouse
Method: Experiment 4 [Spontaneous motor activity test]
Six male ICR mice weighing 20-30 g were used as the test animals for each group. The test drugs [A: (E)-N-cyclopropyl-3-(3 chlorophenyl)-2-butenamide and B: (E)-N-cyclopropyl-3-(3-fluorophenyl)-2-butenamide] suspended in 0.4% aqueous carboxymethylcellulose solution were each administered orally to mice in the amounts of 50, 70.7 and 100 mg/kg (0.1 ml per 10 g of mouse). The control group were administered with 0.4% aqueous carboxymethylcellulose solution only. After 15 minute, mice were placed in ANIMEX apparatus (manufactured by Muromachi Kikai K.K.) to determine the spontaneous moter activity for 30 minutes

[6] = Acute toxicity test; type: in vivo, male ICR mice; settings: mouse
Method: Experiment 5 [Acute toxicity test]
Ten male ICR mice weighing 25 to 34 g were used. (E)-N-cyclopropyl-3-(3-chlorophenyl)-2-butenamide suspended in 0.4% aqueous carboxymethylcellulose solution was each administered orally to mice in the amount of 0.1 ml per 10 g of mice. […] The LD50 values were more than 1 g/kg p.o.

[7] = J. Med. Chem., vol. 9 (No. 5), 675-681 (1966); cited from earlier work
[8] = 5 mg/kg i.v., in propylene glycol
[9] = 10 mg/kg i.v., in propylene glycol
[10] = 50 mg/kg i.d., in 0.4% aqueous carboxymethylcellulose
[11] = 50 mg/kg (head: i.v.; text: orally)
[12] = 70.7 mg/kg (head: i.v.; text: orally)
[13] = 100 mg/kg (head: i.v.; text: orally)
[14] = 140 mg/kg (head: i.v.; text: orally)
[15] = 70.7 mg/kg p.o., control of A 2116.0 ± 256.6, of B 2128.7 ± 228.0

Compound: O=C(/C=C/c1cccc(F)c1)NC1CC1 [C, cinflumide, reference compound]
- length of time during which the inhibition action occurs (inhibition time of the rigidity) [1, 8]: 0 min
- length of time during which the inhibition action occurs (inhibition time of the rigidity) [1, 9]: 3 min
- length of time during which the inhibition action occurs (inhibition time of the rigidity) [1, 10]: 0 min
- length of time during which the inhibition occurs (inhibition time of the rigidity) ([2]; 10 mg/kg i.v.): 8 min
- inhibition rate (Straub tail reaction) [3, 11]: 0%
- inhibition rate (Straub tail reaction) [3, 12]: 20%
- inhibition rate (Straub tail reaction) [3, 13]: 80%
- inhibition rate (Straub tail reaction) [3, 14]: 100%
- muscle relaxing activity [4]: most preferred effect

Compound: C/C(=C\C(=O)NC1CC1)c1cccc(Cl)c1 [A, (E)-N-cyclopropyl-3-(3-chlorophenyl)-2-butenamide]
- length of time during which the inhibition action occurs (inhibition time of the rigidity) [1, 8]: 13 min
- length of time during which the inhibition action occurs (inhibition time of the rigidity) [1, 9]: 37 min
- length of time during which the inhibition action occurs (inhibition time of the rigidity) [1, 10]: 36 min
- length of time during which the inhibition occurs (inhibition time of the rigidity) ([2]; 5 mg/kg i.v.): 9 min
- length of time during which the inhibition occurs (inhibition time of the rigidity) ([2]; 10 mg/kg i.v.): 13 min
- inhibition rate (Straub tail reaction) [3, 11]: 40%
- inhibition rate (Straub tail reaction) [3, 12]: 40%
- inhibition rate (Straub tail reaction) [3, 13]: 100%
- inhibition rate (Straub tail reaction) [3, 14]: 100%
- Spontaneous motor activity ([5]; 50 mg/kg p.o., control of A 2116.0 ± 256.6): 1736.0 ± 366.6 Counts/30 minutes
- Spontaneous motor activity [5, 15]: 1570.2 ± 326.9 Counts/30 minutes
- death (survivals observed for 7 days) ([6]; 1 g/kg p.o.): no death occurred
- LD50 at 168 h ([6]; in vivo, po): > 1000 mg/kg
- sedative or taming action [7]: showing sedative or taming action

Compound: C/C(=C\C(=O)NC1CC1)c1cccc(F)c1 [B, (E)-N-cyclopropyl-3-(3-fluorophenyl)-2-butenamide]
- length of time during which the inhibition action occurs (inhibition time of the rigidity) [1, 8]: 6 min
- length of time during which the inhibition action occurs (inhibition time of the rigidity) [1, 9]: 12 min
- length of time during which the inhibition action occurs (inhibition time of the rigidity) [1, 10]: 53 min
- length of time during which the inhibition occurs (inhibition time of the rigidity) ([2]; 5 mg/kg i.v.): 8 min
- length of time during which the inhibition occurs (inhibition time of the rigidity) ([2]; 10 mg/kg i.v.): 12 min
- Spontaneous motor activity [5, 15]: 2264.2 ± 506.0 Counts/30 minutes
- Spontaneous motor activity ([5]; 100 mg/kg p.o., control of B 2128.7 ± 228.0): 1667.8 ± 152.4 Counts/30 minutes
